Results from publication PMC4383003, “Transfer hydrogenation catalysis in cells as a new approach to anticancer drug design” (Nature Communications, 2015).
Several values for one entry are separate records, joined by “and”; a condition that tells them apart may be missing. Equal entries are not always repeated.

Legend:
[1] = pKa* of aqua adducts of the complexes; format: physicochemical; details: pKa value determined in deuterated solvent
From the text: Table 1 pKa* values for aqua adducts of catalysts 1–4 (and 8 for comparison) and turnover frequencies for transfer hydrogenation of NAD^+ using formate. | column: pKa*

[2] = system: A2780 ovarian cancer cells; assay: Cell viability on co-administration of Ru complexes (1/3 x IC50) with formate or acetate; format: cell-based, human; details: for Cell viability / Cell viability percentages: A2780, complex 1/3 x IC50, 24 h
Experimental: Cell viability assays were carried out with complexes 1–8 in A2780 ovarian cancer cells. These experiments were carried out as described above with the following modifications: a fixed concentration of each Ru complex equal to 1/3 × IC50 was used in co-administration with three different concentrations of sodium formate or sodium acetate (0.5, 1.0 and 2.0 mM). To prepare the stock solution of the drug, the complex was dissolved in 5% dimethylsulfoxide and diluted in a 1:1 mixture of 0.9% saline:cell culture medium. This stock was further diluted using RPMI-1640 until working concentrations were achieved. Separately, stock solutions of sodium formate or sodium acetate were prepared in saline. The complex and formate were added to each well independently, but within 5 min of each other.
Supplementary Table 7: Percent cell viability of A2780 ovarian cancer cells exposed to equipotent concentrations of ruthenium complexes 1-3 and 5-8 (1/3 x […]
The experiments included 48 h of pre-incubation and 72 h of drug recovery, both in drug-free medium at 310 K in a 5% CO2 humidified atmosphere. All the experiments were performed as duplicates of triplicates in independent experiments and the error bars were calculated as the standard deviation from the mean.
Supplementary Table 11: Cell viability (%) of A2780 ovarian cancer cells exposed […]
administered with different concentrations of sodium acetate (0, 0.5, 1 and 2 mM).
The experiments involved 48 h of pre-incubation and 72 h of drug recovery, both in […]
Cell viability percentages (%)
Complex Acetate concentration (mM)

9-ethylguanine = assay: Binding to model nucleobase 9-ethylguanine by 1H NMR; details: D2O, pH* 7.2 ± 0.1, 310 K
Experimental: Supplementary Table 4: Binding constants for formation of 9-EtG adducts of complexes 1-4 determined by 1H NMR. The experiments were performed in D2O, pH* 7.2 ± 0.1 and 310 K. Equilibrium was reached by the time the first 1H NMR spectrum was recorded (< 10 min). […]
DNA is believed to be the main target for [(bip)Ru(en)Cl]+ (8). Due to the structural similarity of the complexes 1-5 with complex 8, their binding to DNA was […]
Interaction with nucleobases
Initially, model nucleobases, 9-ethylguanine and 9-methyladenine were reacted with complexes 1-4 in D2O, 310 K and pH* 7.2 ± 0.1. The binding of the complexes to 9-EtG or 9-MeA was monitored by 1H-NMR spectroscopy. Peaks for the 9-EtG adducts were observed by the time the first spectrum was recorded (< 5 min after mixing), […]
equilibrium was reached rapidly. The binding constants for formation of 9-EtG adducts determined by NMR were between 60 and 106 mM-1 (Supplementary Table 4). These values are in the same range as that from the ethylenediamine complex [(bip)Ru(en)Cl]+ (K9-EtG= 60.3 mM-1),2 which also binds strongly to DNA.3, 4 The high resolution mass spectrum confirmed the formation of [(η6-arene)Ru(XEn)(9-EtG)]+ (Supplementary Table 5). The interaction of complexes 1-4 with 9-MeA was also investigated, but no reaction was detected by 1H-NMR.
It is well established that N7 of guanine is the preferred nucleotide binding site for many transition metals ions. 2-8 Furthermore, strong and selective binding to N7 of 9-EtG, has been observed for [(η6-arene)Ru(en)Cl]+.3, 4 A pH* titration of […]

[3] = Transfer hydrogenation of NAD+ to 1,4-NADH with formate, followed by 1H NMR; details: for TOF D2O/MeOH-d4: 23% MeOH-d4/77% D2O; for TOF D2O/MeOH-d4 / TOF D2O: NAD+ 2 mol equiv, formate 25 mol equiv, 310 K, pH* 7.2
Experimental: Complexes 1–7 were dissolved in MeOH-d4/D2O (5:1 v/v, 1.4 mM, 4 ml). Solutions of sodium formate (35 mM, 4 ml) and NAD^+ in D2O (2.8 mM, 2 ml) were also prepared and incubated at 310 K. In a typical experiment, 200-μl aliquots of each solution were added to a 5-mm NMR tube and the pH* adjusted to 7.2±0.1 (total volume 0.635 ml, final concentrations: Ru complex 0.44 mM; NAD^+ 0.88 mM; formate 11.02 mM; molar ratio 1:2:25). ^1H NMR spectra were recorded at 310 K every 162 s until the completion of the reaction.
Molar ratios of NAD^+ and NADH were determined by integrating the peaks at 9.33 and 6.96 p.p.m. (NAD^+ and 1,4-NADH, respectively). The turnover number for the reaction was calculated as follows: […]
where In is the integral of the signal at n p.p.m. and [NAD^+]0 is the concentration of NAD^+ at the start of the reaction.

[4] = system: A2780 ovarian cancer cells; assay: Ruthenium accumulation in cancer cells (ICP-MS); format: cell-based, human; details: for Cell Ru: A2780, 1/3 x IC50, 24 h drug exposure, no recovery time; for Cell accum.: A2780, 24 h, 1/3 x IC50
Experimental: Briefly, 1.5 × 10^6 cells per well were seeded on a six-well plate. […] After this time, cells were washed, treated with trypsin-EDTA, counted and cell pellets were collected. Each pellet was digested overnight in concentrated nitric acid (73%) at 353 K; the resulting solutions were diluted using double-distilled water to give a final concentration of 5% HNO3 and the amount of Ru taken up by the cells was determined by ICP–MS. […]
Supplementary Table 3: Antiproliferative activity of complexes 1-8 in A2780 ovarian cancer cells and their cellular accumulation (expressed as ng Ru per million cells).
The latter experiments were carried out using equipotent concentrations of the […]
experiments were performed as duplicates of triplicates in independent experiments and the error bars were calculated as the standard deviation from the mean. […]

[5] = system: A2780 human ovarian cancer cells; assay: In vitro growth inhibition assay (SRB), A2780; format: cell-based
Experimental: A2780 human ovarian carcinoma and MRC5 human fetal lung fibroblasts were obtained from the European Collection of Cell Cultures. Both cell lines were grown in Roswell Park Memorial Institute medium (RPMI-1640) supplemented with 10% of fetal calf serum, 1% of 2 mM glutamine and 1% penicillin/streptomycin. All cells were grown as adherent monolayers at 310 K in a 5% CO2-humidified atmosphere and passaged at ca. 70–80% confluency.
The antiproliferative activity of complexes 1–8 was determined in A2780 ovarian cancer cells and MRC5 fibroblasts. Briefly, 96-well plates were used to seed 5,000 cells per well. The plates were left to pre-incubate with drug-free medium at 310 K for 48 h before adding different concentrations of the compounds to be tested. A drug exposure period of 24 h was allowed. After this, supernatants were removed by suction and each well was washed with PBS. A further 72 h were allowed for the cells to recover in drug-free medium at 310 K. The sulforhodamine B (SRB) assay was used to determine cell viability. IC50 values, as the concentration that causes 50% cell death, were determined as duplicates of triplicates in two independent sets of experiments and their s.d. were calculated.

calf thymus DNA = assay: Interaction with calf thymus DNA (ethanol precipitation, ICP-MS of Ru); format: binding; details: for free Ru in supernatant: CT-DNA, 1:3 complex:base pairs, 310 K
Experimental: Interaction with calf thymus DNA
Complex 2 was chosen as representative of the series. A stock solution of complex 2 (0.7 mM in 5 % acetonitrile/water) was prepared and aliquots of 66 μL were added to a solution of CT-DNA (final ratio 1:3 complex: base pairs-DNA) in water, 2 mM cacodylate buffer and 2 mM NaCl. The reaction mixture was incubated at 310 K, and aliquots of 300 μL were taken at different intervals during a period of 27 h. The DNA was then precipitated by addition of ethanol (700 μL, final concentration 70% v/v). Ru complexes which are strongly bound to CT-DNA will precipitate together with the DNA upon addition of ethanol, and, therefore the ruthenium concentration in the supernatant should decrease. However, no changes in the Ru concentration were detected by ICP-MS showing that the interaction between the complex 2 and DNA is weak (t = 0 h / 64.2 ± 0.7 µM, t = 24 h/ 65.1 ± 0 .3 µM free Ru). In contrast complex 8

CT-DNA = assay: Thermal stability (melting temperature) of CT-DNA by UV-Vis; format: binding, calf; details: for Tm: CT-DNA, 1:3 complex:base pairs, 2 mM cacodylate pH 7.4, 2 h 310 K
Experimental: Supplementary Table 6: Melting temperature (Tm) of CT-DNA in the presence of 8 or complex 2 (ratio 1:3, complex: base pairs-DNA). The reactions were carried out in cacodylate buffer (2 mM, pH 7.4), and samples incubated for 2 h at 310 K. […]
a variation in melting temperature between free DNA and DNA in the presence of the corresponding complex. * […] from free DNA using a T-test analysis. ** p < 0.01 from free DNA using a T-test analysis […]
Thermal stability of CT-DNA
The melting temperature of CT-DNA in the presence and absence of complex 2 [(p-cym)Ru(TsEn)Cl] was determined by UV-Vis spectroscopy (Supplementary Table 6). Higher melting temperatures indicate increased stabilization of the DNA, which is the effect produced by DNA-intercalators and often by direct metal coordination to […]
the nucleobases.11 Destabilization of DNA can result in a decrease of the melting […]
In the presence of complex 8, the melting temperature of CT-DNA increased In agreement with the literature, 12 by 14 K, in 2 mM NaCl, 2 mM cacodylate buffer.
This increase is due to Ru binding to DNA as well as intercalation. 12 However, upon increasing the chloride concentration by ca. 10x (20 mM NaCl) the melting temperature of CT-DNA in the presence of complex 8, increased only by 7 K. This effect has previously been reported and it is attributed to the partial inhibition of hydrolysis, and, therefore, inhibition of coordination to DNA. 12, 13
Experiments performed in the presence of complex 2, in 2 mM cacodylate buffer and […]
NaCl, no decrease of the melting temperature was observed. […]

[6] = pH* titration of the 9-EtG adduct (1H NMR); format: physicochemical; details: protonation/deprotonation of N1 of coordinated 9-EtG, H8 chemical shift versus pH*
From the text: [(p-cym)Ru(TsEn)(9-EtG)]+ was used to confirm that the complex binds to N7. A plot
of the chemical shift of H8 from bound 9-EtG (Supplementary Figure 3), versus pH*
from coordinated 9-EtG and therefore we conclude that the binding of complex 2 to […]

Compound | pKa* [1] | Cell viability ([2]; formate 0.5 mM) [%] | Cell viability ([2]; formate 1 mM) [%] | Cell viability ([2]; formate 2 mM) | Binding constant for formation of 9-EtG adducts (9-ethylguanine) [mM⁻¹] | TOF D2O/MeOH-d4 [3] [h⁻¹] | TOF D2O [3] [h⁻¹] | Cell Ru [4] [ng x 106 cells] | Cell accum. [4] [ng Ru/10^6 cells] | IC50 ([5]; A2780, Supplementary Table 3) [µM] | other results
CS(=O)(=O)[N-]CCN.Cc1ccc(C(C)C)cc1.[Cl-].[Ru+2] [Complex 1, [(p-cym)Ru(MsEn)Cl]] | 9.86±0.01 | 61± 1 | 40.0 ± 0.4 | 1.5 ± 0.1% and ~1% | 105.4 ± 2.3 | 1.25 ± 0.03 | 1.11 ± 0.02 | 0.16 ± 0.02 | 0.16 | 11.9 ± 0.8 | decrease in cell survival ([2]; A2780, formate increased from 0 to 2 mM): ca. 50 fold
Cc1ccc(C(C)C)cc1.NCC[N-]S(=O)(=O)c1ccc(C(F)(F)F)cc1.[Cl-].[Ru+2] [Complex 3, [(p-cym)Ru(TfEn)Cl]] | 9.71±0.01 | 60± 2 | 39.4 ± 2.0 | 19 ± 2% | 60.5 ± 6.0 | 5.7 ± 0.3 | 3.06 ± 0.05 | 0.31 ± 0.04 | 0.31 | 14.2 ± 0.8 | Cell viability ([2]; formate 0 mM): 71 ± 2%
Cc1ccc(C(C)C)cc1.NCC[N-]S(=O)(=O)c1ccc([N+](=O)[O-])cc1.[Cl-].[Ru+2] [Complex 4, [(p-cym)Ru(NO2En)Cl]] | 9.56±0.04 |  |  |  | 92.8 ± 1.0 | 9.6 ± 0.3 | 4.1 ± 0.1 |  |  | 14.7 ± 0.6 | time for completion of the catalytic reaction ([3]; 6 mol equiv of NAD+): 20.5 min
NCCN.[Cl-].[Ru+2].c1ccc(-c2ccccc2)cc1 [Complex 8, [(bip)Ru(en)Cl]^+, reference compound] |  | 71 ± 1 | 61 ± 1 | 39 ± 1% and ~39% |  |  |  |  |  | 2.17 ± 0.08 | Cell viability percentages ([2]; acetate 0 mM): 75.4 ± 2%; Cell viability percentages ([2]; acetate 0.5 mM): 73.1 ± 0.8%; Cell viability percentages ([2]; acetate 1 mM): 72 ± 1%; free Ru in supernatant (calf thymus DNA; t = 0 h): 58.3 ± 0.3 µM; free Ru in supernatant (calf thymus DNA; t = 24 h): 48.5 ± 0.6 µM; binding to calf thymus DNA (calf thymus DNA; ICP-MS of Ru, up to 27 h at 310 K, 1:3 complex:DNA base pairs, 2 mM cacodylate pH 7.4, 2 mM NaCl): bind strongly; increase of melting temperature of CT-DNA (CT-DNA; 2 mM NaCl, 2 mM cacodylate buffer): -259 °C; increase of melting temperature of CT-DNA (CT-DNA; 20 mM NaCl): -266 °C; Tm (CT-DNA; 2 mM NaCl): 63.8 ± 0.8 °C; Tm (CT-DNA; 20 mM NaCl): 67.1 ± 0.6 °C; ΔTm (CT-DNA; versus free DNA, 20 mM NaCl): 7.9 °C; IC50 ([5]; A2780, 24 h drug exposure, no formate): 2.2 µM
CCn1cnc2c(=O)[nH]c(N)nc21.Cc1ccc(C(C)C)cc1.Cc1ccc(S(=O)(=O)[N-]CCN)cc1.[Ru+2] [[(p-cym)Ru(TsEn)(9-EtG)]+] |  |  |  |  |  |  |  |  |  |  | pKa* [6]: 8.77
